Literature values, collected in patent publication US20240148640A1, “TOPICAL OXYBUTYNIN FOR HOT FLASHES” (CELISTA PHARMACEUTICALS LLC, priority 2022, published 2024).

CCN(CC)CC#CCOC(=O)C(O)(c1ccccc1)C1CCCCC1 (centres unmarked) [oxybutynin]
reduction of hot flashes (given orally (Leon-Ferre et al., 2020)): 75%
frequency and intensity of hot flashes (women with frequent hot flashes, incl. breast cancer survivors on tamoxifen or aromatase inhibitors (Kligman et al., 2010)): reduced the frequency and intensity of hot flashes
